# Data taken from publication PMC12525728, “Safety, Pharmacokinetics, Translational and Molecular Mechanistic Insights on the Prostate Cancer Recurrence Suppressor Pseurotin A” (Molecules, 2025).
# Experiments:
# [1] = Pharmacokinetics study in Swiss albino mice; format: in vivo; conditions: following oral dosing
# Swiss albino mice = tested on: Swiss albino mice; set-up: method as in PMID 36771126; conditions: cited from earlier work
# [2] = tested on: HFD-fed Swiss albino mice; assay: Systemic cholesterol monitoring assay in HFD-fed mice, 90-day oral dosing; format: in vivo; conditions: 90 days; for reduction of HFD-induced hypercholesterolemia relative to the control: female; for plasma cholesterol relative reduction versus the control group: male
# Protocol: Plasmatic cholesterol concentrations in mice were determined using a total cholesterol kit (EnzyChrom^TM Cholesterol Assay Kit ECCH-100 BioAssay Systems, Hayward, CA, USA), adhering to the manufacturer’s instructions. Colorimetric quantitation was measured at 340 nm using a Synergy 2 microplate reader (BioTek Instruments Inc., Winooski, VT, USA). Blood was collected through tail vein extraction on the day before treatment, day 35, and day 90. Blood was quickly collected into green-topped Lithium Heparin 400 µL blood collection tubes (BD Microtainer REF# 365965 Becton, Dickinson and Company, Franklin Lakes, NJ, USA), centrifuged at 13,000× g for 10 min, and the upper layer of plasma was transferred to 1.5 mL Eppendorf tubes (Thermo Fisher Scientific, Waltham, MA, USA) and stored at −20 °C until analysis.
# For the 90-day daily oral dosing sub-chronic toxicity study, twenty male and twenty female healthy 8-week-old Swiss albino mice were randomly selected and randomized to […] (n = 5/sex/group). Mice received free access to purified drinking water and high-fat diet (HFD) pelleted rodent chow (11.4% total fat, no. 7004, Envigo/Teklad, Madison, WI, USA) until the day before sacrifice, at which time they were fasted for 8 h and allowed only free access to drinking water. Daily doses of PsA (10, 40, 80 mg/kg body weight) were administered to the mice formulated in <5% DMSO (Mediatech Inc., Manassas, VA, USA) and <0.2% Tween 80 (Croda Inc., Princeton, NJ, USA) at a volume not exceeding 1% of body weight by metal oral gavage (2 mm diameter with stainless steel bite protector, 18-gauge, 3.81 cm long). […] The mice were observed weekly until the completion of the study. The body weights of the mice were measured in grams using a Scout^TM Pro (Ohaus Corp., Pine Brook, NJ, USA) on day 0, 4, 8, 11, 14, 21, 28, 35, 42, 49, 56, 63, 70, 77, 83, and 90 after initial treatment. On day 90, all mice were anesthetized using isoflurane (USP-vaporizer method, Matrix VIP-3000, Covetrus, Dublin, OH, USA, exposure of animals in an anesthesia chamber at 3% isoflurane vaporization rate. Exposure time 2 min). Mice were then euthanized by cervical dislocation according to the 2020 AVMA Guidelines on Euthanasia and dissected. Mice organs (brain, liver, kidney, heart, lungs, spleen) were excised and weighed for histopathological examination. The organs were stored in 10% neutral buffered formalin (Avantor Science Central, Allentown, PA, USA) for 24 h and then transferred to 70% ethanol (AAPER ALCOHOL, Shelbyville, KY, USA). This study was performed following the OECD guideline 408 for the testing of chemicals.
# [3] = Qualitative tissue distribution (biodistribution) study after IP dosing; format: in vivo, Swiss albino mice; conditions: IP 125 mg/kg, 7 min after dosing
# Protocol: Five µL of the IS ([…]) and 20 µL of 50, 40, 30, 20, 10, 8, and 4 µg/mL PsA standard solutions were combined with 15 µL freshly extracted blank mouse plasma. 300 µL of a 70% EtOAc/30% isopropanol mixture was added and vortexed for 30 s. Following centrifugation at 15,000× g for 10 min, the supernatant was transferred to a 2 mL Eppendorf tube for nitrogen evaporation. The residues were reconstituted in 25 µL HPLC-grade MeOH before being subjected to 30 s sonication followed by centrifugation at 15,000× g for 10 min. Afterwards, the entire sample was immediately injected for RP-HPLC analysis. The mouse plasma samples used in the PK study were subjected to the same extraction method, minus the addition of the PsA standard solutions. After weighing, each mouse organ was reconstituted in 500 µL PBS, then homogenized using the MISONIX Sonicator (Division of QSonica LLC, Newtown, CT, USA). Samples were centrifuged at 15,000× g for 10 min, and the supernatant was collected and transferred to a 2 mL Eppendorf. About 5 µL of IS (25 µL/mL) and 300 µL of a 70% EtOAc/30% isopropanol mixture were added to 100 µL of supernatant and vortexed for 30 s. Following centrifugation at 15,000× g for 10 min, the supernatant was transferred to a 2 mL Eppendorf tube and evaporated under N2. The remains were reconstituted in 40 µL HPLC-grade methanol before being subjected to 30 s sonication followed by centrifugation at 15,000× g for 10 min.
# For the biodistribution study, four healthy male and two healthy female Swiss albino mice were randomly selected and placed in 2 groups (n = 3/group). The mice received free access to drinking water and pelleted regular rodent chow (Cat# 7012, Envigo/Teklad, Madison, WI, USA) until the day before experimentation, after which they were fasted for 8 h and allowed only free access to drinking water. One group was IP administered 125 mg/kg PsA formulated in PBS-DMSO (925:75) + 0.2% Tween 80 at a body weight-adjusted volume not exceeding 300 µL. […] Collected samples were immediately extracted using the described method above and analyzed using HPLC.
compound,measurement,setting,value
"CC/C=C\[C@H](O)[C@H](O)C1=C(C)C(=O)[C@]2(O1)C(=O)N[C@@](OC)(C(=O)c1ccccc1)[C@@H]2O [PsA, pseurotin A]",plasma detectability by validated HPLC method,[1],not detectable in the plasma
same,decrease in body weight,"Swiss albino mice; 500 mg/kg female dosing group, oral gavage, after 14 days",45%
same,"major organ toxicity (liver, lung, heart, brain, kidneys)","Swiss albino mice; 14-day acute toxicity, 10, 250 and 500 mg/kg oral gavage",neither major organ toxicity
same,LD50,"Swiss albino mice; Up-and-Down acute toxicity procedure, oral, male and female Swiss albino mice",> 550 mg/kg
same,reduction of HFD-induced hypercholesterolemia relative to the control,[2]; 10 mg/kg daily oral,−80.7%
same,reduction of HFD-induced hypercholesterolemia relative to the control,[2]; 40 mg/kg daily oral,−92.9%
same,reduction of HFD-induced hypercholesterolemia relative to the control,[2]; 80 mg/kg daily oral,−85.5%
same,plasma cholesterol relative reduction versus the control group,[2]; 10 mg/kg daily oral,−96.1%
same,plasma cholesterol relative reduction versus the control group,[2]; 40 mg/kg daily oral,−107.3%
same,plasma cholesterol relative reduction versus the control group,[2]; 80 mg/kg daily oral,−116.7%
same,PsA HPLC peak in brain tissue (BBB crossing),[3],did not display PsA peak
same,"PsA HPLC peak in liver, kidney, heart and spleen tissue",[3],prominent PsA peak
same,PsA HPLC peak in plasma,[3],prominent PsA peak
